Measured values from PubChem BioAssay AID2060495 (Molecular Pharmacology Branch, DTP, NCI, 2025).

System: 521955-158-R2-J5-PDC complex spheroid viability
Test: Anticancer human tumor 521955-158-R2-J5-PDC patient-derived pancreatic carcinoma cell line growth inhibition [GQUAD]
Conditions: for IC50: curve of first compound; for viability, T/C: stronger effect = lower value
Summary of the method: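 Viability of tumor cells grown as complex spheroids with endothelial and stromal cells, exposed to drug combinations. Top concentration at or near clinical Cmax (else 10 microM), diluted in half-log increments.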

[1] = second compound 0.0316 µM, first compound 0.0316 µM
[2] = second compound 0.0316 µM, first compound 0.1 µM
[3] = second compound 0.0316 µM, first compound 0.316 µM
[4] = second compound 0.0316 µM, first compound 1 µM
[5] = second compound 0.0316 µM, first compound 3.16 µM
[6] = second compound 0.0316 µM, first compound 10 µM
[7] = second compound 0.1 µM, first compound 0.0316 µM
[8] = second compound 0.1 µM, first compound 0.1 µM
[9] = second compound 0.1 µM, first compound 0.316 µM
[10] = second compound 0.1 µM, first compound 1 µM
[11] = second compound 0.1 µM, first compound 3.16 µM
[12] = second compound 0.1 µM, first compound 10 µM
[13] = second compound 0.316 µM, first compound 0.0316 µM
[14] = second compound 0.316 µM, first compound 0.1 µM
[15] = second compound 0.316 µM, first compound 0.316 µM
[16] = second compound 0.316 µM, first compound 1 µM
[17] = second compound 0.316 µM, first compound 3.16 µM
[18] = second compound 0.316 µM, first compound 10 µM
[19] = second compound 1 µM, first compound 0.0316 µM
[20] = second compound 1 µM, first compound 0.1 µM
[21] = second compound 1 µM, first compound 0.316 µM
[22] = second compound 1 µM, first compound 1 µM
[23] = second compound 1 µM, first compound 3.16 µM
[24] = second compound 1 µM, first compound 10 µM
[25] = second compound 3.16 µM, first compound 0.0316 µM
[26] = second compound 3.16 µM, first compound 0.1 µM
[27] = second compound 3.16 µM, first compound 0.316 µM
[28] = second compound 3.16 µM, first compound 1 µM
[29] = second compound 3.16 µM, first compound 3.16 µM
[30] = second compound 3.16 µM, first compound 10 µM
[31] = second compound 10 µM, first compound 0.0316 µM
[32] = second compound 10 µM, first compound 0.1 µM
[33] = second compound 10 µM, first compound 0.316 µM
[34] = second compound 10 µM, first compound 1 µM
[35] = second compound 10 µM, first compound 3.16 µM
[36] = second compound 10 µM, first compound 10 µM
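Note: spheroids exposed to agents for one week before reading.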
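Throughout, for viability, T/C: 100% = DMSO vehicle control viability.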

Compound `COc1cccc2c1C(=O)c1c(O)c3c(c(O)c1C2=O)CC(O)(C(=O)CO)CC3OC1CC(N)C(O)C(C)O1` (stereo unspecified) + Cc1cnc(CNC(=O)c2c(=O)c3ccc(N4CCCN(C)CC4)nc3n3c2sc2ccccc23)cn1 has an IC50 (second compound 0.0316 µM) of 113 nM, an IC50 (second compound 0.1 µM) of 127 nM and an IC50 (second compound 0.316 µM) of less than 31.6 nM. The IC50 (second compound 1 µM) was less than 31.6 nM, the IC50 (second compound 3.16 µM) was less than 31.6 nM and the IC50 (second compound 10 µM) was less than 31.6 nM. The viability, T/C [1] was 78.2%, the viability, T/C [2] was 48% and the viability, T/C [3] was 38.4%. It also gave a viability, T/C [4] of 10.9%, a viability, T/C [5] of 4.19% and a viability, T/C [6] of 0.5%. It also gave a viability, T/C [7] of 53.3%, a viability, T/C [8] of 59.6% and a viability, T/C [9] of 26.3%. The viability, T/C [10] was 10.6%, the viability, T/C [11] was 1.38% and the viability, T/C [12] was 0.74%. It also gave a viability, T/C [13] of 36.3%, a viability, T/C [14] of 37.1% and a viability, T/C [15] of 20.9%. For the same compound, the viability, T/C [16] was 8.92%, the viability, T/C [17] was 0.18% and the viability, T/C [18] was 0.39%. It also gave a viability, T/C [19] of 20.7%, a viability, T/C [20] of 20.1% and a viability, T/C [21] of 14.5%. It also gave a viability, T/C [22] of 8.17%, a viability, T/C [23] of 0.08% and a viability, T/C [24] of 0.07%. It also gave a viability, T/C [25] of 18.5%, a viability, T/C [26] of 18.4% and a viability, T/C [27] of 15%. The viability, T/C [28] was 5.89%, the viability, T/C [29] was 0.12% and the viability, T/C [30] was 0.13%. For the same compound, the viability, T/C [31] was 18.4%, the viability, T/C [32] was 14.4% and the viability, T/C [33] was 16.2%. For the same compound, the viability, T/C [34] was 4.97%, the viability, T/C [35] was 0.21% and the viability, T/C [36] was 0.19%.

`Nc1ccn(C2OC(CO)C(O)C2(F)F)c(=O)n1` (stereo unspecified) + Cc1cnc(CNC(=O)c2c(=O)c3ccc(N4CCCN(C)CC4)nc3n3c2sc2ccccc23)cn1 showed an IC50 (second compound 0.0316 µM) of 159 nM, an IC50 (second compound 0.1 µM) of 85.7 nM and an IC50 (second compound 0.316 µM) of less than 31.6 nM. It also gave an IC50 (second compound 1 µM) of less than 31.6 nM, an IC50 (second compound 3.16 µM) of less than 31.6 nM and an IC50 (second compound 10 µM) of less than 31.6 nM. The viability, T/C [1] was 67.4%, the viability, T/C [2] was 63.6% and the viability, T/C [3] was 30.6%. The viability, T/C [4] was 12.9%, the viability, T/C [5] was 8.38% and the viability, T/C [6] was 8.43%. It also gave a viability, T/C [7] of 57.4%, a viability, T/C [8] of 51.2% and a viability, T/C [9] of 29%. The viability, T/C [10] was 20.9%, the viability, T/C [11] was 7.8% and the viability, T/C [12] was 7.55%. The viability, T/C [13] was 36%, the viability, T/C [14] was 27.7% and the viability, T/C [15] was 20.9%. The viability, T/C [16] was 12.8%, the viability, T/C [17] was 9.07% and the viability, T/C [18] was 7.49%. The viability, T/C [19] was 20.2%, the viability, T/C [20] was 19.9% and the viability, T/C [21] was 15.2%. It also gave a viability, T/C [22] of 9.52%, a viability, T/C [23] of 9.75% and a viability, T/C [24] of 8.51%. It also gave a viability, T/C [25] of 16%, a viability, T/C [26] of 17.8% and a viability, T/C [27] of 15.9%. It also gave a viability, T/C [28] of 8.29%, a viability, T/C [29] of 4.92% and a viability, T/C [30] of 2.37%. For the same compound, the viability, T/C [31] was 17%, the viability, T/C [32] was 15.7% and the viability, T/C [33] was 15.1%. For the same compound, the viability, T/C [34] was 6.25%, the viability, T/C [35] was 4.12% and the viability, T/C [36] was 5.49%.

`O=c1[nH]cc(F)c(=O)[nH]1` + Cc1cnc(CNC(=O)c2c(=O)c3ccc(N4CCCN(C)CC4)nc3n3c2sc2ccccc23)cn1 gave an IC50 (second compound 0.0316 µM) of 1190 nM, an IC50 (second compound 0.1 µM) of 1540 nM and an IC50 (second compound 0.316 µM) of less than 31.6 nM. For the same compound, the IC50 (second compound 1 µM) was less than 31.6 nM, the IC50 (second compound 3.16 µM) was less than 31.6 nM and the IC50 (second compound 10 µM) was less than 31.6 nM. For the same compound, the viability, T/C [1] was 88.7%, the viability, T/C [2] was 70.5% and the viability, T/C [3] was 76.8%. For the same compound, the viability, T/C [4] was 51.6%, the viability, T/C [5] was 31.6% and the viability, T/C [6] was 16.7%. For the same compound, the viability, T/C [7] was 65.2%, the viability, T/C [8] was 56.2% and the viability, T/C [9] was 56.5%. It also gave a viability, T/C [10] of 62.2%, a viability, T/C [11] of 33.4% and a viability, T/C [12] of 22.4%. For the same compound, the viability, T/C [13] was 36.7%, the viability, T/C [14] was 56.3% and the viability, T/C [15] was 30.3%. It also gave a viability, T/C [16] of 31%, a viability, T/C [17] of 20.2% and a viability, T/C [18] of 17.8%. For the same compound, the viability, T/C [19] was 23.2%, the viability, T/C [20] was 22.5% and the viability, T/C [21] was 20.1%. The viability, T/C [22] was 16.6%, the viability, T/C [23] was 17.8% and the viability, T/C [24] was 14.1%. The viability, T/C [25] was 18.1%, the viability, T/C [26] was 19.5% and the viability, T/C [27] was 17.8%. The viability, T/C [28] was 19.1%, the viability, T/C [29] was 17% and the viability, T/C [30] was 11.7%. For the same compound, the viability, T/C [31] was 18.7%, the viability, T/C [32] was 21.7% and the viability, T/C [33] was 17.3%. The viability, T/C [34] was 14.2%, the viability, T/C [35] was 15.5% and the viability, T/C [36] was 12.1%.
